ChEMBL document CHEMBL3351796, “Discovery of potent and selective sirtuin 2 (SIRT2) inhibitors using a fragment-based approach” (J Med Chem, 2014)

Tests used:
[1] = target: T1, NAD-dependent protein deacetylase sirtuin-2 (Homo sapiens, UniProt Q8IXJ6); assay: Inhibition of full length human SIRT2 expressed in Escherichia coli BL21 (DE3) cells using fluorogenic 7-amino-4-methylcoumarin (AMC)-labeled peptide by fluorescence assay
T1 sequence (Q8IXJ6 whole entry): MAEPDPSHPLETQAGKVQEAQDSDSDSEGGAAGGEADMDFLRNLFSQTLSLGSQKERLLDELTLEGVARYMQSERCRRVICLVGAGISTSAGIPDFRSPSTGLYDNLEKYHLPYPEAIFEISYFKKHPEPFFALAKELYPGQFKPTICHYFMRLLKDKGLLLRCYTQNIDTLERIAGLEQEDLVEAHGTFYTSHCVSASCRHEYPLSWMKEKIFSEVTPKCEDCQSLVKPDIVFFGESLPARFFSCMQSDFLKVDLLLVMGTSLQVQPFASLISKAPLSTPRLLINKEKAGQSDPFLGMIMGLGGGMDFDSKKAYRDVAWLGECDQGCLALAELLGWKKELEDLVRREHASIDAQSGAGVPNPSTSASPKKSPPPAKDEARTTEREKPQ

[2] = test system: DU-145; assay: cells; settings: Homo sapiens, DU-145, 48 h
Description: Cytotoxicity against human DU145 cells assessed as reduction in cell growth incubated for 48 hrs by alamar blue assay

[3] = test system: MCF7; assay: cells; settings: Homo sapiens, MCF7, 48 h
Description: Cytotoxicity against human MCF7 cells assessed as reduction in cell growth incubated for 48 hrs by alamar blue assay

[4] = test system: K562; assay: cells; settings: Homo sapiens, K562, 48 h
Description: Cytotoxicity against human K562 cells assessed as reduction in cell growth incubated for 48 hrs by alamar blue assay

[5] = Apparent permeability from basolateral to apical side in MDCK2 cells at 25 uM incubated for 15 to 180 mins by HPLC method; type: ADME, cell-based, Canis lupus familiaris, MDCK-II; settings: dog, MDCK
[6] = Apparent permeability from apical to basolateral side in MDCK2 cells at 25 uM incubated for 15 to 180 mins by HPLC method; type: ADME, cell-based, Canis lupus familiaris, MDCK-II; settings: dog, MDCK

IC50 [1]: 0.0483 µM
Papp B→A at 25 µM [5]: 4.35 ×10⁻⁶ cm/s
Papp A→B at 25 µM [6]: 3.84 ×10⁻⁶ cm/s
Compound: NC(=O)c1cncc(Oc2cccc3c(NC(=O)c4ccccc4)cccc23)c1
CC50 [2]: 33.3 µM
CC50 [3]: 30.6 µM
CC50 [4]: 26.2 µM
